“And” between values parts separate entries of the source, which are not always exact repeats. Equal entries are not always repeated.
Target: Gamma-aminobutyric acid type B receptor subunit 1 (UniProt Q9Z0U4)
Sequence (Q9Z0U4 whole entry): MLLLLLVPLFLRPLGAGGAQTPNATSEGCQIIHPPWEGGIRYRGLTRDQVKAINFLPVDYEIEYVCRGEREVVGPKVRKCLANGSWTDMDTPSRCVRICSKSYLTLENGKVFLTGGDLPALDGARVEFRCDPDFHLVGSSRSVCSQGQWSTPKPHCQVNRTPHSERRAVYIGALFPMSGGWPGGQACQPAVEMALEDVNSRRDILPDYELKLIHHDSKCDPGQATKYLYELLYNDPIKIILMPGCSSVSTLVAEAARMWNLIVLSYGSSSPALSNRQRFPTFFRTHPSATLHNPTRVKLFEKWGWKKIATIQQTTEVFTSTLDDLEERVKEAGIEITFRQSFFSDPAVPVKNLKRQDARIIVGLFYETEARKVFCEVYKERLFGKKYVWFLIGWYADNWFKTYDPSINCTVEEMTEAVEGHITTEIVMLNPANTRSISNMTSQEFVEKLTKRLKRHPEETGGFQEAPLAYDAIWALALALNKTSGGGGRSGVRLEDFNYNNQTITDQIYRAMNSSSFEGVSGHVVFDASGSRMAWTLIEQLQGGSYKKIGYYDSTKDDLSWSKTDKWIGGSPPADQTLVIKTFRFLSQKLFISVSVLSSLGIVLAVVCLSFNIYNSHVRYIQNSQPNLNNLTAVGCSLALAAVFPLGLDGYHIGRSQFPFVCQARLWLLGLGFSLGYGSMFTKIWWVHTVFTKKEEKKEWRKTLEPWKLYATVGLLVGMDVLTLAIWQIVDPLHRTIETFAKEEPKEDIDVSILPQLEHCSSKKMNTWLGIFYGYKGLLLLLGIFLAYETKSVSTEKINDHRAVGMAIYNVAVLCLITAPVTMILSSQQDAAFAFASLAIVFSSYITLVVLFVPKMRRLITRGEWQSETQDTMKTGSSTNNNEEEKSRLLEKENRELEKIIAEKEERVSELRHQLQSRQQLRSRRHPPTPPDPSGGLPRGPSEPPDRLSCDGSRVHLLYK

For `CN1C(=O)CN=C(c2ccccc2)c2cc(Cl)ccc21`, which Ki is on record?
Its Ki is 19 nM and 18 nM and 22 nM and 20 nM and 26 nM.

Which Ki does the source give for `Cc1nnc2n1-c1ccc(Cl)cc1C(c1ccccc1)=NC2` here?
Its Ki is 4.5 nM and 5 nM and 6.7 nM and 5.3 nM and 8 nM.

For `CN1C(=O)CN=C(c2ccccc2F)c2cc([N+](=O)[O-])ccc21` [Flunitrazepam], which Ki is on record?
The Ki was 8.8 nM and 10 nM and 6.1 nM and 5 nM and 7.5 nM.

How did the Ki turn out when `CC[C@@H](C)N(C)C(=O)c1cc2ccccc2c(-c2ccccc2Cl)n1` [PK 11195] was run?
The Ki was 1000 nM.

For `CN1C(=O)CN=C(c2ccc(Cl)cc2)c2cc(Cl)ccc21` [Ro5-4864], which Ki is on record?
The Ki was 1000 nM.

Target: Gamma-aminobutyric acid (GABA) B receptor 1 (Rattus norvegicus, UniProt Q6MFX8)
Sequence (Q6MFX8 whole entry): as the sequence (Q9Z0U4 whole entry) above

With `Cc1nnc2ccc(-c3cccc(C(F)(F)F)c3)nn12` as the compound, how does the Ki read?
The Ki was 15 nM and 12 nM and 100 nM.

How did the Ki turn out when `CCOC(=O)c1ncn2c1CN(C)C(=O)c1cc(F)ccc1-2` [ethyl 12-fluoro-8-methyl-9-oxo-2,4,8-triazatricyclo[8.4.0.0^{2,6}]tetradeca-1(14),3,5,10,12-pentaene-5-carboxylate] was run?
Its Ki is 1 nM and 2 nM and 1.9 nM.
